The values below come from publication PMC9900903 (bioRxiv, 2023).

Each structure is given as a SMILES string. Read-outs that look alike come from different tables or passages of the source.

For test [1], the target named is T1, SasG lectin domain (Staphylococcus aureus, UniProt Q2G2B2).
T1 sequence (Q2G2B2 163-419): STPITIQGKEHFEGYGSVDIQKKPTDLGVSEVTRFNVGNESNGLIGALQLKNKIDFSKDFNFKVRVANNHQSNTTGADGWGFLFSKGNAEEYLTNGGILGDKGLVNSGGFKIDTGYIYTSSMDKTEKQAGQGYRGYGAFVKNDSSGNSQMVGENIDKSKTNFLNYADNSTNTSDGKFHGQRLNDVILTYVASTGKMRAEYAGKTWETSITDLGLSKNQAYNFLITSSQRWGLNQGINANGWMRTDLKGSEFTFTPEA
The experiment in a line: ITC. Type of test: binding. The note with it: pH 7.2, 50 mM phosphate, 150 mM NaCl, 25 °C.

Test [2] addresses T2, Aap lectin domain (Staphylococcus epidermidis, UniProt Q5HKE8).
T2 sequence (Q5HKE8 351-605): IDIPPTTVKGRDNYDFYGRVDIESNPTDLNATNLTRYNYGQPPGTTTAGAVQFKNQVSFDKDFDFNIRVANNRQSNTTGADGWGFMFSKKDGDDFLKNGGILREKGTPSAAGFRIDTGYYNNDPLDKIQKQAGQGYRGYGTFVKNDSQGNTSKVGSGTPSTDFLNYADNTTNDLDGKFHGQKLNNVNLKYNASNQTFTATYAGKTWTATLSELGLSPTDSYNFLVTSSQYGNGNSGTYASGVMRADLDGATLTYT
The experiment in a line: ITC. The format is binding. The note with it: pH 7.2, 50 mM phosphate, 150 mM NaCl, 25 °C.

With `CC(=O)N[C@H]1C(O)O[C@H](CO)[C@@H](O[C@@H]2O[C@H](CO)[C@H](O)[C@H](O)[C@H]2O)[C@@H]1O` (stereo partly drawn) [N-acetyllactosamine], in test [1], the ITC result is reported as “We confirmed that SasG lectin is able to bind N-acetyllactosamine by ITC”. Besides, the Kd in test [2] (read-out: affinity) is approximately 130 µM.
In test [2], `CC(=O)N[C@H]1[C@H]([C@H](O)[C@H](O)CO)O[C@@](O[C@H]2[C@@H](O)[C@@H](CO)O[C@@H](O[C@H]3[C@H](O)[C@@H](NC(C)=O)C(O)O[C@@H]3CO)[C@@H]2O)(C(=O)O)C[C@@H]1O` (stereo partly drawn) [3'-sialyl-N-acetyllactosamine] showed a Kd of 13 µM.
